# Experimental data from a melting point compilation (Tetko et al.; mined from patent text by program, amines drawn as free bases though some values may be those of a salt).
row,melting point [°C],Structure (SMILES)
1,88.5 to 90,COC(=O)C1CCCN1C(=O)c1ccccc1 (centres undefined)
2,> 200,CSc1nc(N2CCc3ccccc3CC2)c(C#N)c2nncn12
3,160,N=C(N)c1ccc(O)cc1
4,157 to 158,COC(=O)Cc1ccc(S(C)(=O)=O)c(S(C)(=O)=O)c1
5,212 to 214,CCOC(=O)c1cn(-c2ccc([N+](=O)[O-])cn2)cn1
6,260 to 262,Nc1nccc2[nH]cnc12
7,186 to 188,COc1c(C2CCN(CCCCNC(=O)c3ccc(-c4ccc(C#N)s4)nc3)CC2)ccc2c1CCCC2
8,130 to 131,CCOC(=O)Cn1c(=O)sc2cc(-c3ccccc3)c(Cl)cc21
9,293 to 295,CC(C)(C(=O)O)c1ccc(C(=O)Nc2cn3c4c(ccc3n2)OCC4)cc1
10,259 to 261,CCCn1c(=O)c2[nH]c(/C=C/c3ccccc3)nc2n(CCC)c1=O
11,166 to 167,CC(C)(C)OC(=O)CN(C(=O)CNC(=O)Nc1ccccc1)c1ccccc1C(=O)c1ccccc1
12,> 250,CCN(CC)C(=O)C1CCC2C3CNC4=CC(=O)C=CC4(C)C3CCC12C (centres undefined)
13,213,CCCOc1ccccc1-c1[nH]c(=O)c(C#N)cc1C
14,155 to 157,O=C1CCC(N2Cc3c(OCc4cn5cc(CN6CCOCC6)ccc5n4)cccc3C2=O)C(=O)N1 (centres undefined)
15,193,O=C(CC1CC1)N[C@H]1CC[C@H](CCN2CCN(c3nccc4c3CCO4)CC2)CC1
16,104 to 106,CCOC(=O)c1c(CN(CC)CC)nc2sc3c(c2c1-c1ccc(OC)c(OC)c1)CCN(C(=S)Nc1ccccc1)C3
17,169 to 171,Cc1cc(O)ccc1-c1ccc(C=NO)c(Cl)c1
18,359 to 361,O=c1[nH]nc(-c2ccc(-n3ccnc3)cc2)c2cccnc12
19,210 to 213,COC(=O)c1nc(C2CCCCC2)[nH]c1-c1ccc(C)cc1
20,250,COC(=O)C1=C(C)NC(C#N)=C(C(=O)OC)C1c1cccc2c(=O)c(C)c(-c3ccccc3)oc12 (centres undefined)
21,224 to 228,COC1=CC(=O)c2c(cc(Br)c(O)c2Br)C1=O
22,97 to 100,O=Cc1ccc(Br)cc1C=O
23,111 to 115,O=C(O)C1CCOc2ccc(F)cc21 (centres undefined)
24,124 to 126,O=C1[C@H]2CCC[C@H]2Nc2ccc(F)cc2N1Cc1ccccc1 (relative stereo)

row,melting point [°C],Structure (SMILES)
1,240 to 241,CCCc1nc2ccccc2n1Cc1ccc(-c2ccccc2-c2nnn[nH]2)nc1
2,119 to 120,CCCCCCc1cc2c(cc1C(=O)Oc1ccc(C(=O)O)cn1)CCCCC2(C)C
3,188 to 190,Cc1ccc(C2c3c(C)c(N4CCN(C)CC4)c(C)c(C)c3OC2(C)C)cc1 (centres undefined)
4,180 to 183,CCCCc1c(C(=O)N(C)Cc2ccc3c(Br)c(OCc4nnn[nH]4)ccc3c2)oc2ccccc12
5,224 to 225,CN1C(=O)C(C)(C)C(=O)N(C)c2cc([N+](=O)[O-])ccc21
6,88,OCCSC(=S)Nc1ccccn1
7,80 to 81,CN1CCC(Oc2ccc3ccccc3n2)(c2ccccc2)CC1
8,216,Cc1cc(C#N)c(C)c(C(=O)Nc2ccc(C#N)cn2)n1
9,163 to 165,CC(C)c1ccccc1Sc1c(O)cc(-c2ccc(OCc3ccccc3)cc2)oc1=O
10,188 to 189,CC(C)(C)n1cc(-c2ccc(I)cc2)c2c(N)ncnc21
11,109 to 112,CCC(COC)NC(=O)C(Cc1ccc(OCc2ccccc2)cc1)NC(=O)C(CC(C)C)N(C)Cc1ccc(N(C)C)cc1 (centres undefined)
12,150 to 153,CC(C)(CNC(=O)/C(CCO)=C(\c1ccc(Cl)cc1)c1ccc(S(C)(=O)=O)cc1)SN=O
13,57 to 59,C#CCSC(=S)N(C)C
14,185,CCn1cc(-c2cccc(C(F)(F)F)c2)c(=O)c(-c2cccc(C(F)(F)F)c2)c1
15,138 to 139,C=C[C@@H](C)[C@H]1CC[C@H]2[C@@H]3CCC4=CC(=O)CC[C@]4(C)[C@H]3CC[C@]12C
16,190 to 195,CCCCCCC(C(=O)N1CCC[C@H]1C(=O)O)n1cnc(NC(=O)c2ccccc2S(=O)(=O)O)c1 (some centres undefined)
17,239 to 241,Cc1cccc(Nc2ccccc2-c2n[nH]c(=O)o2)c1C
18,55 to 56,CCCCCCCCCCCCCCCC(=O)OC(CCCCCCCCCCCCCC)C(=O)O (centres undefined)
19,159 to 163,COC1=C(OC)C(=O)C2=C(CCC(CCn3cnc4ccccc43)CC2)C1=O
20,255,CC(C)(C)OC(=O)NCc1ccc(C(=O)Nc2ccc(Nc3cc(-c4cccc5c4oc4ccccc45)ncn3)cc2)c(F)c1
21,145 to 148,Cc1cccc(C)c1NC(=O)CN1CCN(CCCC(c2ccc(F)cc2)c2ccc(F)cc2)CCN1
22,134 to 135,CCOC(=O)c1cn(Cc2ccccc2)c2c(OC)c(F)c(F)c(N)c2c1=O
23,172 to 173,O=C1C(c2cccn2Cc2ccccc2)=CC(=O)c2ncccc21
24,155 to 156,O=C1c2cc(OCc3ccccn3)ccc2OCC1Oc1cccnc1 (centres undefined)

row,melting point [°C],Structure (SMILES)
1,107 to 108,COC1(C)CCc2ccc(O)cc2O1 (centres undefined)
2,165 to 166,Cc1nc(OC(F)F)nc(C)c1N1CCCn2c1nc1c(Cl)ccc(C(OC(F)F)C(F)(F)F)c12 (centres undefined)
3,155 to 157,CCn1nc(-c2cccs2)c(C(=O)OCCOC(C)=O)c(Nc2cncc3ccccc23)c1=O
4,83 to 85,CCCOCN(C(=O)CCl)c1c(OC)cccc1OC
5,233 to 234,CCn1ncc2c(NCc3ccc(C#N)cc3)c3ccccc3nc21
6,82 to 84,CCOC(=O)c1cnc2n(c1=O)CCCCC2
7,155,C[C@H]1CCCC[C@H]1Nc1c(C(N)=O)cnn2cccc12
8,229 to 230,CCCc1c(OCc2ccc(/C=C3\SC(=S)NC3=O)cc2)ccc(C(=O)c2ccccc2)c1O
9,110 to 113,COc1cc(NC(NC(C)C(C)(C)C)=C(C#N)S(C)(=O)=O)cc(C(F)(F)F)c1 (centres undefined)
10,166 to 167,CCOCc1nc2c(N)nc3cc(N4CCOC4=O)ccc3c2n1CCCOC(C)C
11,271 to 272,CC(=O)Nc1c(I)c(C(N)=O)c(I)c(C(=O)NCC(=O)O)c1I
12,> 250,CSc1nc(-c2cccnc2)n(-c2ccc(C)c(C)c2)c(=O)c1C#N
13,104 to 106,COc1cc(C)c(NC(=O)OC(C)(C)C)c(C)c1C
14,> 210,CC1(C)COC(=O)N1c1nc(-c2cccc([N+](=O)[O-])c2)cs1
15,109 to 112,CCCS(=O)c1ccc(N)c([N+](=O)[O-])c1 (centres undefined)
16,105 to 107,CN1CCN(C2Cc3ccccc3Sc3cc(F)c(Cl)cc32)CC1 (centres undefined)
17,116 to 118,O=C1N[C@H](C(=O)NCCO)CS1
18,123 to 126,CC(C)C(N)=NC(=Nc1ccccc1)N1CCOCC1
19,175 to 177,Cn1ncc(-c2ccc3c(c2)c(C2=CCN(CCN4CCNC4=O)CC2)cn3-c2ccc(F)cc2)n1
20,201 to 202,CNC(=O)CC1CN=C(c2cc3cc(Oc4ccc(S(C)(=O)=O)nc4)cc(OC)c3[nH]2)S1 (centres undefined)
21,156 to 159,CC(=O)N1CCC(Br)(C(=O)c2ccc(F)cc2)CC1
22,339 to 343,O=C(O)C(=O)c1ccc(-c2ccc(Cl)cc2)s1
23,94 to 103,CC(C)(C)NC(=O)[C@@H]1CCCN1C(=O)[C@@H](O)[C@H](Cc1ccccc1)NC(=O)[C@H](CC(N)=O)NC(=O)COC1CCN(Cc2ccccc2)CC1
24,156 to 157,Cc1csc2nc(CO)cn12

row,melting point [°C],Structure (SMILES)
1,195 to 197,CC(C)(C)c1cc(C(=O)NCCc2cccc([N+](=O)[O-])c2)cc(C(C)(C)C)c1O
2,116 to 118,CCOC(=O)C1=CC(=O)CC(c2ccc(Cl)c(OC)c2F)N1 (centres undefined)
3,75 to 76,CCCCCCCCSc1nc(SCCCCCCCC)nc(-c2cc(C)c(O)c(C)c2)n1
4,145 to 148,Cc1ccc(Oc2ccc(NN)cc2)c(O)c1
5,> 300,O=c1c(-c2cc(=O)c3c(O)cccc3o2)cn(-c2ccccc2)c2ccccc12
6,181,COc1ccc(N2CCN(c3ccc(N=C=S)cc3)CC2)cc1
7,190 to 191,O=C(O)c1cccc(-c2ccc3c(c2)C(NCc2ccc(Cl)cc2Cl)CC3)c1 (centres undefined)
8,137 to 138,O=[N+]([O-])c1ccc(OC2(c3ccccc3)CCNCC2)cc1
9,64 to 66,O=C(Cn1nnnc1-c1ccc2ccccc2c1)OCCO
10,145 to 146,O=C(O)COc1ccc(F)cc1C(=O)NCc1ccc(Br)cc1F
11,225 to 227,CC(C)c1ccccc1NC(=O)c1ccccc1C(c1ccc(O)cc1)c1ccc(O)cc1
12,200 to 201,CCOC(=O)c1cc2cc3c(cc2oc1=O)OCO3
13,274 to 276,CCOC(=O)CNC(=O)CCCOc1ccc2nc3[nH]c(=O)[nH]c3cc2c1
14,137 to 144,O=C(OCC1OC(n2cc(F)c(=O)[nH]c2=O)C(O)C1O)C1CCCN1C(=O)OCc1ccccc1 (centres undefined)
15,208 to 210,Cc1cccc(-n2c(-c3cc(-c4ccc(S(C)(=O)=O)cc4)c(N4CCOCC4)s3)nc3ccccc3c2=O)c1
16,270 to 275,N#Cc1ccc(-c2cc3ccc(C#N)cc3[nH]2)cc1
17,185 to 187,CCC12CC(O)C(O)(c3ccccc3)CC1CC(O)c1cc(O)ccc12 (centres undefined)
18,97 to 99,CC(C)(N)COC(=O)CCc1cc(C(C)(C)C)c(O)c(C(C)(C)C)c1
19,86 to 87,O=S(=O)(c1ccccc1)c1ncc(C(F)(F)F)cc1Cl
20,106 to 107,N#Cc1c(Sc2ccccc2)cccc1[N+](=O)[O-]
21,160,CC(=O)OC1CSC(Oc2cccnc2Cl)C(OC(C)=O)C1OC(C)=O (centres undefined)
22,218 to 220,C#CCN1C(=O)COc2ccc(-n3c(OC)nc(C(F)(F)F)cc3=O)cc21
23,148 to 151,CSC(=NCCN1CCC(c2noc3cc(F)ccc23)CC1)NC#N
24,124 to 127,C=Cc1ccc(C2=CC(=O)NC2=O)cc1

row,Structure (SMILES),melting point [°C]
1,COc1ccc2c3c1OC1C(O)C(C)(C)C(C)C4C(C2)N(C)CCC314 (centres undefined),110 to 112
2,COc1ccc(C2CNCc3c(C)cccc32)cc1OC (centres undefined),86 to 88
3,O=[N+]([O-])N=c1ccccn1Cc1ccccc1,125 to 126
